Source: paper PMC7509988 (2018)

Test system: E2 aptamer (DNA, aptamer) AAGGGATGCCGTTTGGGCCCAAGTTCGGCATAGTG
Experiment: graphene field-effect transistor
Settings: 0.05 × PBS; pH 7.4, 5% DMSO, no interference; 4.67 nM with pH variation 6.5-8.0

KD: 4.21 nM
Structure (SMILES): C[C@]12CC[C@@H]3c4ccc(O)cc4CC[C@H]3[C@@H]1CC[C@@H]2O
